Columns and labels:
[1] = system: blood platelets; assay: Inhibition of blood platelet aggregation (aggregometer, ADP); type: cell-based, human (healthy testees); conditions: Platelet, 0.05 h; human PRP, ADP 2 to 4 μM, 3 min incubation, 37° C.; read-out: IC50 (Inhibition of blood platelet aggregation)
How it was run: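 Citrated human PRP (0.38% sodium citrate final; donors drug-free ≥8 days) preincubated 3 min with test substance at 37 °C under stirring, then ADP 2 to 4 μM added; aggregation followed by light transmission against PPP. IC50 from linear regression of % inhibition vs log concentration.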

[2] = system: PAI-1; assay: Inhibition of plasminogen activator inhibitor (PAI-1) from blood platelets (fibrinolytic activity); type: cell-based, human; conditions: 50 μM, 60 minutes
Protocol: Compounds according to the invention were tested for their inhibition of plasminogen activator inhibitor (PAI). An established thrombus comprises aggregated platelets cohered by fibrin. The organism has a fibrinolyric system for maintaining normal physiological conditions. Endogenous plasminogen is activated to plasmin (fibrinolysin, that is a proteolytic enzyme decomposing fibrin) by means of a tissue plasminogen activator (t-PA). The platelets include the enzyme PAI-1 inhibiting the activation of plasminogen to plasmin, and thus also the decomposition of fibrin.
A general stimulation of the fibrinolytic system can cause serious hemostatic side effects (haemorrhages). A specific inhibition of PAI-1 induces an increased fibrinolysis in areas with many platelets, which is exactly the case in thrombi. As a result a thrombolytic effect is obtained.
Human PRP prepared by slight centrifugation as previously mentioned is used, but at a low temperature (4° C.). By incubation of PRP (1 ml in a plastic tube) during a slight shaking at 37° C. the PAI-1 activity is liberated, said PAI-1 activity being measured spectrophotometrically by means of a two-step procedure using commercial kits (Spectrolyse™/fibrin kit from BIOPOOL, Sweden).
The PAI-1 activity of the control PRP and PRP incubated with each of 6 compounds according to the invention and the reference substance sodium niroprusside (NNP) (50 μM of each for 60 minutes) appear from Table 6.

[3] = system: pre-contracted trachea; assay: Relaxation of pre-contracted isolated trachea; design: species or system guinea pig; conditions: Cavia porcellus; carbamylcholine 0.3 μM, Krebs buffer, 37° C.
Protocol: Compounds according to the invention were tested for their ability to relax a pre-contracted trachea. A contraction of the respiratory passages in combination with a swelling of the mucuos membrane therein presents a vital factor at asthmatic conditions. Relaxation or dilation of the contracted respiratory passages will improve the asthmatic condition.
An isolated trachea from a guinea pig is used. After preparation of a strip which has maintained the circular musculature, the organ is divided into two parts of equal size. The two tracheal strips are suspended in their respective organ bath and connected to a transducer recording the contraction and relaxation of the organ by means of a recorder. The two tracheal strips are continuously bathed in a Krebs buffer at 37° C., constantly bubbled with carbogen (95% O2 and 5% CO2). After an equilibration time of about 3 hours the organs are tested for their sensitivity (contractility) to carbamylcholin a bolus being added directly to the bath (0.3 μM). If the contraction is satisfactory, the organs are transferred to the Krebs buffer containing the same concentration of carbamylcholine. The organs are now constantly exposed to the carbamylcholine and slowly develop a permanent contraction ("asthma"). The test substances are in bolus form added directly to the organ bath. After maximum effect (relaxation) the substances are removed by washing out and the tracheal strip reverts to its permanent contraction state. […] An EC50 -value (that is the concentration relaxing the organ by 50% relative to the maximum relaxation) is calculated for each test substance by means of a linear regression analysis (log concentration (μM) as a constant ad abscissa and % relaxation as variable ad ordinate). Sodium nitroprusside (NNP) and SIN-1 are used as reference substances.

[4] = system: polymorph nuclear leukocytes (PMNs), c-GMP; assay: Stimulation of c-GMP content in PMNs; type: cell-based, human; conditions: 37° C., 10 minutes
How it was run: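 Isolated human PMNs incubated with compound for 10 min at 37 °C, then cellular c-GMP content measured.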

## COc1ccc(Cl)cc1-[n+]1noc([NH-])n1 [Example 20]
[1]
  IC50: 0.18 µM
[2]; compared to control
  % Inhibition of PAI-1 activity: 35%
[2]; human PRP, control 3.24
  PAI-1 activity: 2.09 U/10^8 platelets
[3]
  EC50: 2.7 µM
[4]; 1 μM
  c-GMP in PMNs: 175 fmole/10^6 cells
[4]; 10 μM
  c-GMP in PMNs: 492 fmole/10^6 cells
[4]; 100 μM
  c-GMP in PMNs: 866 fmole/10^6 cells
